The record followed here is publication doi:10.1101/2021.02.18.431786v1 (biorxiv, 2021).

The assay deals with ABCG2 (Homo sapiens, UniProt Q9UNQ0). As to the kind of experiment: biochemical.
ABCG2, sequence (Q9UNQ0 whole entry): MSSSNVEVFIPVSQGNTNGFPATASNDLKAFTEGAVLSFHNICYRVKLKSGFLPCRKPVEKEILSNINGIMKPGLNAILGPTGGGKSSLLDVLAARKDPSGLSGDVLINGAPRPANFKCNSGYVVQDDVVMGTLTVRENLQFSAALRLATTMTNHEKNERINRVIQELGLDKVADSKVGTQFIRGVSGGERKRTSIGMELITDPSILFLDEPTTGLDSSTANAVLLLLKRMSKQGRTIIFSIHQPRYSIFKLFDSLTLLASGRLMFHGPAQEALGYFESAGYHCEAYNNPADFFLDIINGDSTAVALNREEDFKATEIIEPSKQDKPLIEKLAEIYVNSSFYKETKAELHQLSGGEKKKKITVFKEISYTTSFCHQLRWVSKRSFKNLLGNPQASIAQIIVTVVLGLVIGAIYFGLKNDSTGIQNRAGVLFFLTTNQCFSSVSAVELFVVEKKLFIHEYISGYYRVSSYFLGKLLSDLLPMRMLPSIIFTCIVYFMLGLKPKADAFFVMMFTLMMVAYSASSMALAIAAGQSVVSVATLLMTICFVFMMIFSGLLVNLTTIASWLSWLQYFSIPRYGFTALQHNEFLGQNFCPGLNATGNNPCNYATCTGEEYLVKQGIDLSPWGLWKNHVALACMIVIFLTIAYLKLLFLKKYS
On to `O=C1c2c(O)ccc(O)c2C(=O)c2c(NCCNCCO)ccc(NCCNCCO)c21` [mitoxantrone], for which the midpoint of the response, the EC50, lay at 18.3 ± 2.2 µM.
As for `COc1cc2c(cc1OC)CN(CCc1ccc(NC(=O)c3cc(OC)c(OC)cc3NC(=O)c3cnc4ccccc4c3)cc1)CC2` [tariquidar], a half-maximal response (EC50) required 0.08 ± 0.01 µM.
For the molecule `CC[C@@]1(O)C(=O)OCc2c1cc1n(c2=O)Cc2cc3c(CN(C)C)c(O)ccc3nc2-1` [topotecan], the response was half-maximal at 11.7 ± 0.3 µM (EC50).

As a reminder, the EC50 is the concentration needed to bring the measured effect to its halfway point. Read a high EC50 as a need for much substance.
